In US20110028458A1, “INHIBITION OF CELL MIGRATION BY A FARNESYLATED DIBENZODIAZEPINONE” (THALLION PHARMACEUTICALS INC., priority 2008, published 2011):

How the values were obtained:
ACAT = ACAT enzyme assay, [14C]cholesterol ester quantitation; format: biochemical, rat; details: 10 μM
Description: (§1) The procedures used were based on known assays: ACAT (from rat; Ref: Largis et al (1989), J. Lipid. Res., vol 30, 681-689), COX-2 (human; Ref: Riendeau et al (1997), Can. J. Physiol. Pharmacol., vol 75, 1088-1095 and Warner et al (1999), Pro. Natl. Acad Sci. USA, vol 96, 7563-7568), 5-LO (human; Ref: Carter et al (1991), J. Pharmacol. Exp. Ther., vol 256, no 3, 929-937, and Safayhi et al (2000), Planta Medica, vol 66, 110-113), PBR (from rat; Le Fur et al (1983), Life Sci. USA, vol 33, 449-457), CysLT1 (human; Martin et al (2001), Biochem. Pharmacol., vol 62, no 9, 1193-1200) and CBR (from rat; Damm et al (1978), Res. Comm. Chem. Pathol. Pharmacol., vol 22, 597-600 and Speth et al (1979), Life Sci., vol 24, 351-357).
Binding assays were done for each of Compounds 1-12 and 46 using ACAT, COX-2, 5-LO, PBR and CysLT1 enzymes. The procedures used are based on the respective references mentioned above and the conditions are summarized in Tables 1 (enzyme assays) and 2 (radioligand receptor assays).
(§2) Binding Assays were done at constant concentration of the compound, in 1% DMSO as vehicle, and are specified below each enzyme/receptor type in Table 3. Significance was obtained when a result was ≧50% binding or inhibition (underlined).

SRBC = assay: Hemolysis of SRBC; format: cell-based
[1] = test system: central benzodiazepine receptor (CBR; GABAA); assay: CBR (GABAA) radioligand binding assay, [3H]flunitrazepam, rat brain; details: 10 μM
Description: as §1, §2
As Compound 1 was isolated from structural prediction through genetic analysis and activity identified through in vitro cytotoxic assays, its molecular target(s) were unknown at the time of discovery. Based on the structural characteristics of TLN-4601, we first investigated its binding affinity to the central (GABAA; CBR;) and peripheral (PBR) benzodiazepine receptors. The effect of TLN-4601 on CBR (GABAA) and PBR was initially evaluated in a radioligand-binding assay at MDS Pharma Services (Taipei, Tawain). CBR and PBR were obtained from rat brain and heart membrane-fractions, respectively. Displacement assays were done in the presence of 1 nM [^3H]-Flunitrazepam (CBR; GABAA) or 0.3 nM of [^3H]-PK11195 (PBR). TLN-4601 was tested at 0.01, 0.1, 0.5, 1, 5 and 10 μM. Non-specific binding was estimated in the presence of 10 μM diazepam (CBR) or 100 μM dipyrimadole (PBR) and assays were performed according to previous described methods (Damm et al Res Commun Chem Pathol Pharmacol 22, pp 597-600; Le Fur et al (1983) Life Science 33, pp 449-57). […] This contrats with current specific PBR ligands, which bind the PBR with nanomolar affinity yet their effect on cell proliferation, is in the micromolar range.

[2] = test system: HT-29 (colorectal carcinoma); assay: In vitro cytotoxic activity, propidium iodide, HT-29; format: cell-based, human
SF268 (CNS) = assay: In vitro cytotoxic activity, propidium iodide, SF-268; format: cell-based, human; details: 96 hrs
[3] = test system: MDA-MB-231 (mammary gland adenocarcinoma); assay: In vitro cytotoxic activity, propidium iodide, MDA-MB-231; format: cell-based, human; details: 96 hrs
[4] = test system: PC-3 (prostate adenocarcinoma); assay: In vitro cytotoxic activity, propidium iodide, PC-3; format: cell-based, human; details: 96 hrs

Row | Percentage of inhibition or binding activity, ACAT (ACAT) [%] | Percentage of inhibition or binding activity, CBR [1] [%] | SMILES | Hemolysis ED50 (concentration necessary to achieve 50% hemolysis of SRBC) (SRBC) [µg/mL] | GI50 ([2]; Homo sapiens, HT-29, 96 h) [nM] | GI50 (SF268 (CNS)) [nM] | GI50 [3] [nM] | GI50 ([2]; 96 hrs) [nM] | GI50 [4] [nM]
1 | 51 | 22 | CC(C)=CCC/C(C)=C/CC/C(C)=C/CN1C(=O)c2cccc(O)c2N(C)c2c(O)cc(O)cc21 [Compound 2] | 5.12 |  |  |  |  | 
2 | 63 | 10 | CC(C)=CCC/C(C)=C/CC/C(C)=C/CN1C(=O)c2cccc(O)c2N(Cc2ccccc2)c2c(O)cc(O)cc21 [Compound 3] | >64 |  |  |  |  | 
3 |  | 12 | COc1cccc2c1Nc1c(O)cc(O)cc1N(C/C=C(\C)CC/C=C(\C)CCC=C(C)C)C2=O [Compound 4] | >64 |  |  |  |  | 
4 | 60 | 21 | COc1cc(O)cc2c1Nc1c(O)cccc1C(=O)N2C/C=C(\C)CC/C=C(\C)CCC=C(C)C [Compound 5] | >64 |  |  |  |  | 
5 |  | 14 | COc1cc(OC)c2c(c1)N(C/C=C(\C)CC/C=C(\C)CCC=C(C)C)C(=O)c1cccc(O)c1N2 [Compound 6] | >64 | > 30000 |  |  |  | 
6 | 95 | 21 | COc1cccc2c1Nc1c(OC)cc(O)cc1N(CC=C(C)CCC=C(C)CCC=C(C)C)C2=O [Compound 7] | >64 |  | 18500 | 17400 | 14100 | 14600
7 | 40 | 1 | COc1cc(OC)c2c(c1)N(CC=C(C)CCC=C(C)CCC=C(C)C)C(=O)c1cccc(OC)c1N2 [Compound 8] |  |  |  |  |  | 
8 | 77 | 10 | CC(=O)Oc1cc(OC(C)=O)c2c(c1)N(CC=C(C)CCC=C(C)CCC=C(C)C)C(=O)c1cccc(O)c1N2 [Compound 9] | >64 |  | 1880 | 2480 | 12600 | 1440
9 | 90 | 5 | CC(=O)Oc1cccc2c1Nc1c(OC(C)=O)cc(O)cc1N(CC=C(C)CCC=C(C)CCC=C(C)C)C2=O [Compound 10] | >64 |  | 2020 | 1550 | 13000 | 1350
10 | 71 | 20 | CC(=O)Oc1cc(O)c2c(c1)N(CC=C(C)CCC=C(C)CCC=C(C)C)C(=O)c1cccc(OC(C)=O)c1N2 [Compound 11] | 9.8 |  | 5790 | 7720 | 16000 | 5350
11 | 83 | −24 | CC(=O)Oc1cc(OC(C)=O)c2c(c1)N(CC=C(C)CCC=C(C)CCC=C(C)C)C(=O)c1cccc(OC(C)=O)c1N2 [Compound 12] | >64 |  | 1950 | 2790 | 9330 | 1200
12 |  |  | CCN1c2c(O)cccc2C(=O)N(C/C=C(\C)CC/C=C(\C)CCC=C(C)C)c2cc(O)cc(O)c21 [Compound 14] | 43.9 |  | 760 | 2160 | 2040 | 1150
13 |  |  | CC(C)=CCCC1(C)OC1CC/C(C)=C/CN1C(=O)c2cccc(O)c2Nc2c(O)cc(O)cc21 (stereo not drawn) [Compound 17] | 35.0 |  | 13400 | > 30000 | > 30000 | 18700
14 |  |  | C/C(=C\CN1C(=O)c2cccc(O)c2Nc2c(O)cc(O)cc21)CC/C=C(\C)CCC1OC1(C)C (stereo not drawn) [Compound 18] | >64 |  | 7450 | > 30000 | > 30000 | > 30000
15 | 8 | 27 | CC(C)CCCC(C)CCCC(C)CCN1C(=O)c2cccc(O)c2Nc2c(O)cc(O)cc21 (stereo not drawn) [Compound 46] | 13.9 |  |  |  |  | 
16 |  |  | CCCN1c2c(O)cccc2C(=O)N(C/C=C(\C)CC/C=C(\C)CCC=C(C)C)c2cc(O)cc(O)c21 [Compound 63] | >64 |  |  |  |  | 
17 |  |  | CCCCN1c2c(O)cccc2C(=O)N(C/C=C(\C)CC/C=C(\C)CCC=C(C)C)c2cc(O)cc(O)c21 [Compound 64] | >64 |  |  |  |  | 
18 |  |  | CCCCCCN1c2c(O)cccc2C(=O)N(C/C=C(\C)CC/C=C(\C)CCC=C(C)C)c2cc(O)cc(O)c21 [Compound 67] | >64 |  |  |  |  | 
19 |  |  | CCC(C)N1c2c(O)cccc2C(=O)N(C/C=C(\C)CC/C=C(\C)CCC=C(C)C)c2cc(O)cc(O)c21 (stereo not drawn) [Compound 77] | 60.9 |  |  |  |  | 
20 |  |  | CC(C)CCCC(C)CCCC(C)CCN1C(=O)c2cccc(O)c2N(C)c2c(O)cc(O)cc21 (stereo not drawn) [Compound 78] | 9.89 |  |  |  |  | 
21 |  |  | COC(C)(CCC=C(C)C)CCC/C(C)=C/CN1C(=O)c2cccc(O)c2N(C)c2c(O)cc(O)cc21 (stereo not drawn) [Compound 80] | >64 |  |  |  |  | 
22 |  |  | COC(C)(C)CCC/C(C)=C/CC/C(C)=C/CN1C(=O)c2cccc(O)c2Nc2c(O)cc(O)cc21 [Compound 82] | >64 |  |  |  |  | 
23 |  |  | COC(C)(CCC=C(C)C)CCC/C(C)=C/CN1C(=O)c2cccc(O)c2Nc2c(O)cc(O)cc21 (stereo not drawn) [Compound 83] | 12.4 |  |  |  |  | 
24 |  |  | COC(C)(C)CCCC(C)(CCC/C(C)=C/CN1C(=O)c2cccc(O)c2Nc2c(O)cc(O)cc21)OC (stereo not drawn) [Compound 84] | >32 |  |  |  |  | 
25 |  |  | CCN1c2c(O)cccc2C(=O)N(C/C=C(\C)CC/C=C(\C)CCCC(C)(C)OC)c2cc(O)cc(O)c21 [Compound 85] | >64 |  |  |  |  | 
26 |  |  | CCN1c2c(O)cccc2C(=O)N(CC=C(C)CCCC(C)(CCCC(C)(C)OC)OC)c2cc(O)cc(O)c21 (stereo not drawn) [Compound 87] | >64 |  | 910 | 2400 | 1830 | 1390
27 |  |  | CC(C)=CCCC(C)(O)CCC/C(C)=C/CN1C(=O)c2cccc(O)c2Nc2c(O)cc(O)cc21 (stereo not drawn) [Compound 89] | >64 | > 30000 |  |  |  | 
28 |  |  | CC(=O)NC(C)(CCC=C(C)C)CCC/C(C)=C/CN1C(=O)c2cccc(O)c2Nc2c(O)cc(O)cc21 (stereo not drawn) [Compound 92] | >64 | > 30000 |  |  |  | 
29 |  |  | CC(C)=CCC/C(C)=C/CC/C(C)=C/CN1C(=O)c2cccc(O)c2N(C)c2c(O)cc(O)cc21 [Compound 98] |  |  | 160 | 510 | 690 | 820
30 |  |  | [2H]C([2H])([2H])N1c2c(O)cccc2C(=O)N(C/C=C(\C)CC/C=C(\C)CCC=C(C)C)c2cc(O)cc(O)c21 [Compound 98] | 4.5 |  |  |  |  | 
